Data: ChEMBL document CHEMBL5537115, “New broad-spectrum and potent antibacterial agents with dual-targeting mechanism: Promoting FtsZ polymerization and disrupting bacterial membranes” (Eur J Med Chem, 2024)
Converted amounts (≈) assume the structure as drawn.

What was measured:
Assay type in all cases: functional
Enterococcus faecalis [1] = assay: Antibacterial activity against vancomycin-resistant Enterococcus faecalis ATCC51299 assessed as bacterial growth inhibition incubated for 20 hrs by CLSI based broth microdilution method
Staphylococcus aureus [2] = assay: Antibacterial activity against Staphylococcus aureus clinical isolate assessed as bacterial growth inhibition incubated for 20 hrs by CLSI based broth microdilution method
Klebsiella pneumoniae = assay: Antibacterial activity against Klebsiella pneumoniae ATCC BAA-1902 assessed as bacterial growth inhibition incubated for 20 hrs by CLSI based broth microdilution method
Staphylococcus aureus [3] = assay: Antibacterial activity against penicillin-resistant Staphylococcus aureus ATCC31007 assessed as bacterial growth inhibition incubated for 20 hrs by CLSI based broth microdilution method
Acinetobacter baumannii = assay: Antibacterial activity against Acinetobacter baumannii ATCC19606 assessed as bacterial growth inhibition incubated for 20 hrs by CLSI based broth microdilution method
Enterococcus faecium [4] = assay: Antibacterial activity against vancomycin-resistant Enterococcus faecium ATCC51559 assessed as bacterial growth inhibition incubated for 20 hrs by CLSI based broth microdilution method
Bacillus subtilis = assay: Antibacterial activity against penicillin-susceptible Bacillus subtilis ATCC9372 assessed as bacterial growth inhibition incubated for 20 hrs by CLSI based broth microdilution method
Streptococcus pyogenes [5] = assay: Antibacterial activity against erythromycin-susceptible Streptococcus pyogenes 1 assessed as bacterial growth inhibition incubated for 20 hrs by CLSI based broth microdilution method
Staphylococcus aureus [6] = assay: Antibacterial activity against methicillin-resistant Staphylococcus aureus ATCC43300 assessed as bacterial growth inhibition incubated for 20 hrs by CLSI based broth microdilution method
Bacillus pumilus = assay: Antibacterial activity against penicillin-susceptible Bacillus pumilus CMCC63202 assessed as bacterial growth inhibition incubated for 20 hrs by CLSI based broth microdilution method
Escherichia coli [7] = assay: Antibacterial activity against wild-type Escherichia coli BW25113 assessed as bacterial growth inhibition incubated for 20 hrs by CLSI based broth microdilution method
Escherichia coli [8] = assay: Antibacterial activity against penicillin-susceptible Escherichia coli ATCC25922 assessed as bacterial growth inhibition incubated for 20 hrs by CLSI based broth microdilution method
Enterococcus faecalis [9] = assay: Antibacterial activity against vancomycin-susceptible Enterococcus faecalis ATCC29212 assessed as bacterial growth inhibition incubated for 20 hrs by CLSI based broth microdilution method
[10] = system: Staphylococcus epidermidis; assay: Antibacterial activity against penicillin-resistant Staphylococcus epidermidis clinical isolate assessed as bacterial growth inhibition incubated for 20 hrs by CLSI based broth microdilution method
Staphylococcus aureus [11] = assay: Antibacterial activity against erythromycin-susceptible Staphylococcus aureus ATCC25923 assessed as bacterial growth inhibition incubated for 20 hrs by CLSI based broth microdilution method
Enterococcus faecium [12] = assay: Antibacterial activity against vancomycin-susceptible Enterococcus faecium ATCC19434 assessed as bacterial growth inhibition incubated for 20 hrs by CLSI based broth microdilution method
Streptococcus pyogenes [13] = assay: Antibacterial activity against erythromycin-resistant Streptococcus pyogenes 2 clinical isolate assessed as bacterial growth inhibition incubated for 20 hrs by CLSI based broth microdilution method

Row | Compound | MIC (Enterococcus faecalis [1]) | MIC (Staphylococcus aureus [2]) | MIC (Klebsiella pneumoniae) | MIC (Staphylococcus aureus [3]) | MIC (Acinetobacter baumannii) | MIC (Enterococcus faecium [4]) | MIC (Bacillus subtilis) | MIC (Streptococcus pyogenes [5]) | MIC (Staphylococcus aureus [6]) | MIC (Bacillus pumilus) | MIC (Escherichia coli [7]) | MIC (Escherichia coli [8]) | MIC (Enterococcus faecalis [9]) | MIC [10] | MIC (Staphylococcus aureus [11]) | MIC (Enterococcus faecium [12]) | MIC (Streptococcus pyogenes [13])
1 | NC(=O)c1c(F)ccc(OCc2nc3cc(Cl)cnc3s2)c1F | > 64 µg/mL | 1 µg/mL (≈ 2.81 µM) | > 64 µg/mL | 2 µg/mL (≈ 5.62 µM) | > 64 µg/mL | > 64 µg/mL | 0.5 µg/mL (≈ 1.41 µM) | > 64 µg/mL | 1 µg/mL (≈ 2.81 µM) | 0.5 µg/mL (≈ 1.41 µM) | > 64 µg/mL | > 64 µg/mL | > 64 µg/mL | > 64 µg/mL | 1 µg/mL (≈ 2.81 µM) | > 64 µg/mL | > 64 µg/mL
2 | C[n+]1cc(-c2ccccc2)cc(/C=C/c2ccc(C(F)(F)F)cc2)c1-c1ccccc1.[I-] | 16 µg/mL | 2 µg/mL | > 64 µg/mL | 16 µg/mL | 16 µg/mL | 8 µg/mL | 2 µg/mL | 4 µg/mL | 4 µg/mL | 8 µg/mL | > 64 µg/mL | > 64 µg/mL | 8 µg/mL | 8 µg/mL | 1 µg/mL | 16 µg/mL | 2 µg/mL
3 | C[n+]1cc(-c2ccccc2)cc(/C=C/c2cccc(Br)c2)c1-c1ccccc1.[I-] | 16 µg/mL | 2 µg/mL | 64 µg/mL | 16 µg/mL | 16 µg/mL | 16 µg/mL | 4 µg/mL | 4 µg/mL | 4 µg/mL | 16 µg/mL | > 64 µg/mL | 64 µg/mL | 16 µg/mL | 8 µg/mL | 4 µg/mL | 16 µg/mL | 8 µg/mL
4 | CC(C)c1ccc(/C=C/c2cc(-c3ccc(C(C)(C)C)cc3)[n+](C)cc2-c2ccccc2)cc1.[I-] | 0.5 µg/mL | 0.5 µg/mL | 8 µg/mL | 1 µg/mL | 1 µg/mL | 1 µg/mL | 0.125 µg/mL | 4 µg/mL | 0.25 µg/mL | 0.25 µg/mL | 4 µg/mL | 2 µg/mL | 1 µg/mL | 1 µg/mL | 0.125 µg/mL | 1 µg/mL | 2 µg/mL
5 | CC(C)c1ccc(/C=C/c2cc(-c3ccccc3)c[n+](C)c2-c2ccccc2)cc1.[I-] | 4 µg/mL | 0.5 µg/mL | 32 µg/mL | 4 µg/mL | 8 µg/mL | 4 µg/mL | 1 µg/mL | 2 µg/mL | 2 µg/mL | 2 µg/mL | 32 µg/mL | 16 µg/mL | 4 µg/mL | 4 µg/mL | 0.5 µg/mL | 4 µg/mL | 2 µg/mL
6 | C[n+]1cc(-c2ccccc2)c(/C=C/c2ccc(N)cc2)cc1-c1ccc(C(C)(C)C)cc1.[I-] | 4 µg/mL | 0.25 µg/mL | 16 µg/mL | 2 µg/mL | 4 µg/mL | 4 µg/mL | 0.5 µg/mL | 4 µg/mL | 0.5 µg/mL | 2 µg/mL | 32 µg/mL | 16 µg/mL | 4 µg/mL | 4 µg/mL | 0.125 µg/mL | 4 µg/mL | 2 µg/mL
7 | COc1ccc2cc3[n+](cc2c1OC)CCc1cc2c(cc1-3)OCO2 [BERBERINE] | > 64 µg/mL | 64 µg/mL | > 64 µg/mL | > 64 µg/mL | > 64 µg/mL | > 64 µg/mL | > 64 µg/mL | > 64 µg/mL | > 64 µg/mL | > 64 µg/mL | > 64 µg/mL | > 64 µg/mL | > 64 µg/mL | > 64 µg/mL | 64 µg/mL | > 64 µg/mL | > 64 µg/mL
8 | C[n+]1cc(-c2ccccc2)c(/C=C/c2ccc(N)cc2)cc1-c1ccccc1.[I-] | > 64 µg/mL | 16 µg/mL | > 64 µg/mL | 64 µg/mL | 32 µg/mL | 64 µg/mL | 4 µg/mL | 4 µg/mL | 16 µg/mL | 16 µg/mL | > 64 µg/mL | > 64 µg/mL | 64 µg/mL | 32 µg/mL | 2 µg/mL | > 64 µg/mL | 16 µg/mL
9 | CCCCOc1ccc(/C=C/c2cc(-c3ccccc3)c[n+](C)c2-c2ccccc2)cc1.[I-] | 4 µg/mL | 1 µg/mL | 16 µg/mL | 16 µg/mL | 4 µg/mL | 4 µg/mL | 1 µg/mL | 2 µg/mL | 1 µg/mL | 1 µg/mL | 8 µg/mL | 8 µg/mL | 4 µg/mL | 2 µg/mL | 0.5 µg/mL | 2 µg/mL | 2 µg/mL
10 | Cc1ccc(/C=C/c2cc(-c3ccc(C(C)(C)C)cc3)[n+](C)cc2-c2ccccc2C)cc1.[I-] | 2 µg/mL | 0.5 µg/mL | 8 µg/mL | 2 µg/mL | 4 µg/mL | 2 µg/mL | 0.5 µg/mL | 2 µg/mL | 0.5 µg/mL | 1 µg/mL | 8 µg/mL | 8 µg/mL | 4 µg/mL | 2 µg/mL | 1 µg/mL | 2 µg/mL | 4 µg/mL
11 | CCc1ccc(/C=C/c2cc(-c3ccc(C(C)(C)C)cc3)[n+](C)cc2-c2ccccc2C)cc1.[I-] | 1 µg/mL | 0.5 µg/mL | 8 µg/mL | 1 µg/mL | 2 µg/mL | 0.5 µg/mL | 0.5 µg/mL | 4 µg/mL | 0.5 µg/mL | 1 µg/mL | > 64 µg/mL | 4 µg/mL | 2 µg/mL | 1 µg/mL | 0.125 µg/mL | 1 µg/mL | 4 µg/mL
